In publication PMC8909834, “An Orally Bioavailable and Highly Efficacious Inhibitor of CDK9/FLT3 for the Treatment of Acute Myeloid Leukemia” (Cancers, 2022):

Key:
Test in all cases: Kinase Hotspot radiolabel assay
Type in all cases: biochemical
Conditions in all cases: read-out: % Residual Activity
Aurora A = biological target: T1, Aurora A (Homo sapiens, UniProt O14965)
T1 construct: purchased Reaction Biology Corporation (Kinase HotSpot)
Method in brief: (§1)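 Percent inhibition is from a radiometric Hotspot assay at 1 µM compound. The panel spans 369 kinases, and Ki measurement follows for those inhibited over 90%.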

CDK2/cyclin O = biological target: T2, CDK2/cyclin O (Homo sapiens, UniProt P24941)
T2 construct: purchased Reaction Biology Corporation (Kinase HotSpot)
Method in brief: as §1

CDK4/cyclin D1 = biological target: T3, CDK4/cyclin D1 (Homo sapiens, UniProt P11802)
T3 construct: purchased Reaction Biology Corporation (Kinase HotSpot)
Method in brief: as §1

CDK5/p25 = biological target: T4, CDK5/p25 (Homo sapiens, UniProt Q00535)
T4 construct: purchased Reaction Biology Corporation (Kinase HotSpot)
Method in brief: as §1

CK1g2 = biological target: T5, CK1g2 (Homo sapiens, UniProt P78368)
T5 construct: purchased Reaction Biology Corporation (Kinase HotSpot)
Method in brief: as §1

DAPK2 = biological target: T6, DAPK2 (Homo sapiens, UniProt Q9UIK4)
T6 construct: purchased Reaction Biology Corporation (Kinase HotSpot)
Method in brief: as §1

EPHA5 = biological target: T7, EPHA5 (Homo sapiens, UniProt P54756)
T7 construct: purchased Reaction Biology Corporation (Kinase HotSpot)
Method in brief: as §1

EPHB1 = biological target: T8, EPHB1 (Homo sapiens, UniProt P54762)
T8 construct: purchased Reaction Biology Corporation (Kinase HotSpot)
Method in brief: as §1

ERBB4/HER4 = biological target: T9, ERBB4/HER4 (Homo sapiens, UniProt Q15303)
T9 construct: purchased Reaction Biology Corporation (Kinase HotSpot)
Method in brief: as §1

ERK7/MAPK15 = biological target: T10, ERK7/MAPK15 (Homo sapiens, UniProt Q8TD08)
T10 construct: purchased Reaction Biology Corporation (Kinase HotSpot)
Method in brief: as §1

GRK2 = biological target: T11, GRK2 (Homo sapiens, UniProt P25098)
T11 construct: purchased Reaction Biology Corporation (Kinase HotSpot)
Method in brief: as §1

GRK4 = biological target: T12, GRK4 (Homo sapiens, UniProt P32298)
T12 construct: purchased Reaction Biology Corporation (Kinase HotSpot)
Method in brief: as §1

HGK/MAP4K4 = biological target: T13, HGK/MAP4K4 (Homo sapiens, UniProt O95819)
T13 construct: purchased Reaction Biology Corporation (Kinase HotSpot)
Method in brief: as §1

HIPK2 = biological target: T14, HIPK2 (Homo sapiens, UniProt Q9H2X6)
T14 construct: purchased Reaction Biology Corporation (Kinase HotSpot)
Method in brief: as §1

KSR2 = biological target: T15, KSR2 (Homo sapiens, UniProt Q6VAB6)
T15 construct: purchased Reaction Biology Corporation (Kinase HotSpot)
Method in brief: as §1

LATS2 = biological target: T16, LATS2 (Homo sapiens, UniProt Q9NRM7)
T16 construct: purchased Reaction Biology Corporation (Kinase HotSpot)
Method in brief: as §1

MARK3 = biological target: T17, MARK3 (Homo sapiens, UniProt P27448)
T17 construct: purchased Reaction Biology Corporation (Kinase HotSpot)
Method in brief: as §1

MUSK = biological target: T18, MUSK (Homo sapiens, UniProt O15146)
T18 construct: purchased Reaction Biology Corporation (Kinase HotSpot)
Method in brief: as §1

NEK4 = biological target: T19, NEK4 (Homo sapiens, UniProt P51957)
T19 construct: purchased Reaction Biology Corporation (Kinase HotSpot)
Method in brief: as §1

NIM1 = biological target: T20, NIM1 (Homo sapiens, UniProt Q8IY84)
T20 construct: purchased Reaction Biology Corporation (Kinase HotSpot)
Method in brief: as §1

PDGFRa = biological target: T21, PDGFRa (Homo sapiens, UniProt P16234)
T21 construct: purchased Reaction Biology Corporation (Kinase HotSpot)
Method in brief: as §1

PIM1 = biological target: T22, PIM1 (Homo sapiens, UniProt P11309)
T22 construct: purchased Reaction Biology Corporation (Kinase HotSpot)
Method in brief: as §1

PIM2 = biological target: T23, PIM2 (Homo sapiens, UniProt Q9P1W9)
T23 construct: purchased Reaction Biology Corporation (Kinase HotSpot)
Method in brief: as §1

PKAcb = biological target: T24, PKAcb (Homo sapiens, UniProt P22694)
T24 construct: purchased Reaction Biology Corporation (Kinase HotSpot)
Method in brief: as §1

PKCd = biological target: T25, PKCd (Homo sapiens, UniProt Q05655)
T25 construct: purchased Reaction Biology Corporation (Kinase HotSpot)
Method in brief: as §1

PKN1/PRK1 = biological target: T26, PKN1/PRK1 (Homo sapiens, UniProt Q16512)
T26 construct: purchased Reaction Biology Corporation (Kinase HotSpot)
Method in brief: as §1

PLK2 = biological target: T27, PLK2 (Homo sapiens, UniProt Q9NYY3)
T27 construct: purchased Reaction Biology Corporation (Kinase HotSpot)
Method in brief: as §1

SIK1 = biological target: T28, SIK1 (Homo sapiens, UniProt P57059)
T28 construct: purchased Reaction Biology Corporation (Kinase HotSpot)
Method in brief: as §1

TTBK2 = biological target: T29, TTBK2 (Homo sapiens, UniProt Q6IQ55)
T29 construct: purchased Reaction Biology Corporation (Kinase HotSpot)
Method in brief: as §1

p70S6K/RPS6KB1 = biological target: T30, p70S6K/RPS6KB1 (Homo sapiens, UniProt P23443)
T30 construct: purchased Reaction Biology Corporation (Kinase HotSpot)
Method in brief: as §1

T15 sequence (Q6VAB6 whole entry): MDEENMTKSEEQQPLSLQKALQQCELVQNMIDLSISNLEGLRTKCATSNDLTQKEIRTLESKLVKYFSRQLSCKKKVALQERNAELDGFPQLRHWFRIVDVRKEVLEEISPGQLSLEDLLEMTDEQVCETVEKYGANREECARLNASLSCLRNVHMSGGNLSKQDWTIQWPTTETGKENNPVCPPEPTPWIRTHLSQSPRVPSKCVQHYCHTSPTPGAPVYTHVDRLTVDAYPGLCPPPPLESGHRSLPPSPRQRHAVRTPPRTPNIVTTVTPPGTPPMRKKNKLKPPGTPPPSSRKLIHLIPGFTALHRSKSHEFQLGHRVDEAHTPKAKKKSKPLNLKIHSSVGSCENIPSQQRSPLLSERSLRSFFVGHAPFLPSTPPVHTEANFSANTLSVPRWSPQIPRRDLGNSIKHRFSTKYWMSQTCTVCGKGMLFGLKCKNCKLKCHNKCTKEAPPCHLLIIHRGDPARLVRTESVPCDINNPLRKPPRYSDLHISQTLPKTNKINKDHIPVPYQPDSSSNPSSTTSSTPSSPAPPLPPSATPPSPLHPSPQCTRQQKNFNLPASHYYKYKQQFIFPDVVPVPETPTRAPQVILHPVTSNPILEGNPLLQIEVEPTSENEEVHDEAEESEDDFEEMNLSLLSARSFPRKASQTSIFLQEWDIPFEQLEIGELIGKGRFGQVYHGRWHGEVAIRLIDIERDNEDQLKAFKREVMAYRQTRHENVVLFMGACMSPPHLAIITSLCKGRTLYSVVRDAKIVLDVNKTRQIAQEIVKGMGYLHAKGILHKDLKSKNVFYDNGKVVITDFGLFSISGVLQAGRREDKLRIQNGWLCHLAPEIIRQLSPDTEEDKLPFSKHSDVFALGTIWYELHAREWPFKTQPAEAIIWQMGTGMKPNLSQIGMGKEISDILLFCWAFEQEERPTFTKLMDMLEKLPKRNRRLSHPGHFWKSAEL
T30 sequence (P23443 whole entry): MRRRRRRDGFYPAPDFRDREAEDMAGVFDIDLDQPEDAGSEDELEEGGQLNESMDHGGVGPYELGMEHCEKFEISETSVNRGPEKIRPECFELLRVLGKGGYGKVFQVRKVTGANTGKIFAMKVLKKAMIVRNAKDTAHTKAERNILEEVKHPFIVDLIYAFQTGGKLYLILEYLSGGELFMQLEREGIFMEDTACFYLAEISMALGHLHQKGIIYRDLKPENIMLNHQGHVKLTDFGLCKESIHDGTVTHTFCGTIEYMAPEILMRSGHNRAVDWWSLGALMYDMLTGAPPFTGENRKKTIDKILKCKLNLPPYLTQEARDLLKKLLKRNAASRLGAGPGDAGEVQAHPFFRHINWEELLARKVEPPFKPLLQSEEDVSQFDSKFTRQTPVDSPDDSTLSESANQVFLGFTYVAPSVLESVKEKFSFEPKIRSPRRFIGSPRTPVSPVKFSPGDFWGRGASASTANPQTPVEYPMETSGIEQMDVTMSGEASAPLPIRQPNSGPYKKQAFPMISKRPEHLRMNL
T10 sequence (Q8TD08 whole entry): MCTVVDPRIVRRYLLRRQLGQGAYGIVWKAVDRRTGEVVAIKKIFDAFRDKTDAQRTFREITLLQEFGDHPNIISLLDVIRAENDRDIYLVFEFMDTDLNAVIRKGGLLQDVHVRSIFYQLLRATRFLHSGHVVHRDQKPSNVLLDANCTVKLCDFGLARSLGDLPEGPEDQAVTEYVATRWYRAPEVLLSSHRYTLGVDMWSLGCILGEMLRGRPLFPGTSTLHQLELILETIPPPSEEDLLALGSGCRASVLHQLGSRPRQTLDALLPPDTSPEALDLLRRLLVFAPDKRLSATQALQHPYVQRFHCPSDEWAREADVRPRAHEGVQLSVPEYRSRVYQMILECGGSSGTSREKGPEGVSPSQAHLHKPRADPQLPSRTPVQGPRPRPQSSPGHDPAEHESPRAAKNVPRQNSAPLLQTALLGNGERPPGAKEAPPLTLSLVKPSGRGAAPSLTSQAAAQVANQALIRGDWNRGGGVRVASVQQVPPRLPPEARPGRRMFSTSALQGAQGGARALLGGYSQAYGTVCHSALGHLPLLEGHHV
T26 sequence (Q16512 whole entry): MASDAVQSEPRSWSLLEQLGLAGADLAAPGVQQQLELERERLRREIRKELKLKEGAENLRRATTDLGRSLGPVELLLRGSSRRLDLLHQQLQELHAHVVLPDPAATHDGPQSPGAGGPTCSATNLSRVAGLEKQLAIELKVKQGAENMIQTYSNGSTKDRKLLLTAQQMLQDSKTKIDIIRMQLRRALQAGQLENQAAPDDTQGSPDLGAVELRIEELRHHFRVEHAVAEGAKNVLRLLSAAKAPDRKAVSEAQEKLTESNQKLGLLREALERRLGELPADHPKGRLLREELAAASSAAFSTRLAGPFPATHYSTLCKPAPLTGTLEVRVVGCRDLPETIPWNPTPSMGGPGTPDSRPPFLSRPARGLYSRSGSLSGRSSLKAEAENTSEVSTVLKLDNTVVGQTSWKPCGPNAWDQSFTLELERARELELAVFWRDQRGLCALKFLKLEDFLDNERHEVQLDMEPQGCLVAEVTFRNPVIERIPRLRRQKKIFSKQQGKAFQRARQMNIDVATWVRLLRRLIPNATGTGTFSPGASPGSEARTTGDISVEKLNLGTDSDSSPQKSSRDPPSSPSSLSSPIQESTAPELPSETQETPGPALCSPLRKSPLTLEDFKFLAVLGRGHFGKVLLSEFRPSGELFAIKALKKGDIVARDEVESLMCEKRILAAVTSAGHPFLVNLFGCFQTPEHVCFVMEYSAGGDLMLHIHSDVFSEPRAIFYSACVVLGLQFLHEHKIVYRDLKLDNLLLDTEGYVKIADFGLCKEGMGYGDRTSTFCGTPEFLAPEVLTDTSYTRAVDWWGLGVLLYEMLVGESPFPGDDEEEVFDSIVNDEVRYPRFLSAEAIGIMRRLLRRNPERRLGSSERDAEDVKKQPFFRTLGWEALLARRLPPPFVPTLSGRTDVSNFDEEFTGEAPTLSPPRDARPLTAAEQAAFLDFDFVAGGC
T28 sequence (P57059 whole entry): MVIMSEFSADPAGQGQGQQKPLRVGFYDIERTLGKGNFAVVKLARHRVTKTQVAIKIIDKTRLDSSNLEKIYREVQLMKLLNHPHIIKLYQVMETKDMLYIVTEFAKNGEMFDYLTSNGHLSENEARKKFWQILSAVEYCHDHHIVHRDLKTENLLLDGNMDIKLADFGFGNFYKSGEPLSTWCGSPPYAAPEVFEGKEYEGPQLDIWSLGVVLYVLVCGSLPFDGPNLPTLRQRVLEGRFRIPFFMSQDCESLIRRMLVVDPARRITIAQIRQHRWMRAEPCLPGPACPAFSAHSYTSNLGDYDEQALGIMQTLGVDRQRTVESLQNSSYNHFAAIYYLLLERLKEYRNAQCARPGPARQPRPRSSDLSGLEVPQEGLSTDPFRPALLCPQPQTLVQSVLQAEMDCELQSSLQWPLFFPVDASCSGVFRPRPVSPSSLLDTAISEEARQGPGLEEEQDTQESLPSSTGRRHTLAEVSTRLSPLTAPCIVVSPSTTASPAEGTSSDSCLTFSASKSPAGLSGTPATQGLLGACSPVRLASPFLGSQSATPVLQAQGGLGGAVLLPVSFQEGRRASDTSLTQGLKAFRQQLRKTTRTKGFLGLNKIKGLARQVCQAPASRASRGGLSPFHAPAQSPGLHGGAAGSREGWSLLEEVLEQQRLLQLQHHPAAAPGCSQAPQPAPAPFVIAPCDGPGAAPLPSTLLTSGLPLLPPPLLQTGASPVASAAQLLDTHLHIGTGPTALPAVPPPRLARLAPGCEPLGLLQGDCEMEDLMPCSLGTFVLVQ
T3 sequence (P11802 whole entry): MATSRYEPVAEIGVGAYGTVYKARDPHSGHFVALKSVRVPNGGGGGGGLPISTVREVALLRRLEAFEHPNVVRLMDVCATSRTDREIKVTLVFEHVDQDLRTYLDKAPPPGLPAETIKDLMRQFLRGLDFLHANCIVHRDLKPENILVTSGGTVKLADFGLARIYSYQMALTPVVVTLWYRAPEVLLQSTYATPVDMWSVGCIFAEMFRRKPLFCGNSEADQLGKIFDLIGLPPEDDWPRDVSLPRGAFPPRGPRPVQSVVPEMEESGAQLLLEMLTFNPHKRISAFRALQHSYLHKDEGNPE
T3 sequence (P24385 whole entry partner): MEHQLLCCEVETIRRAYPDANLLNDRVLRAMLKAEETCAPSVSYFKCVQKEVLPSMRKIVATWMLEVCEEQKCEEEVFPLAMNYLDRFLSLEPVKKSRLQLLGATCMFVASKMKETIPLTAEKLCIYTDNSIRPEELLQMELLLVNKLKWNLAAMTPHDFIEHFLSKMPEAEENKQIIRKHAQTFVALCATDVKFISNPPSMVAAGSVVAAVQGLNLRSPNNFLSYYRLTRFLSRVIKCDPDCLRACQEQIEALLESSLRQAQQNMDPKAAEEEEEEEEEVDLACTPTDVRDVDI
T23 sequence (Q9P1W9 whole entry): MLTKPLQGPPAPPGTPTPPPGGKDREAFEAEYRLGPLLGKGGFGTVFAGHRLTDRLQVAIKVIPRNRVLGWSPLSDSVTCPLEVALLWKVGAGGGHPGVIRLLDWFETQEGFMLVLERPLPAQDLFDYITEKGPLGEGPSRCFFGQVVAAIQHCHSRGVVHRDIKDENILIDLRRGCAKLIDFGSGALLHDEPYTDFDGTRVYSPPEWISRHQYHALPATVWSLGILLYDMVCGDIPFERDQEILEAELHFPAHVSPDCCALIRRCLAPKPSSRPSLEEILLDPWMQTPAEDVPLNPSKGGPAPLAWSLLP
T22 sequence (P11309 whole entry): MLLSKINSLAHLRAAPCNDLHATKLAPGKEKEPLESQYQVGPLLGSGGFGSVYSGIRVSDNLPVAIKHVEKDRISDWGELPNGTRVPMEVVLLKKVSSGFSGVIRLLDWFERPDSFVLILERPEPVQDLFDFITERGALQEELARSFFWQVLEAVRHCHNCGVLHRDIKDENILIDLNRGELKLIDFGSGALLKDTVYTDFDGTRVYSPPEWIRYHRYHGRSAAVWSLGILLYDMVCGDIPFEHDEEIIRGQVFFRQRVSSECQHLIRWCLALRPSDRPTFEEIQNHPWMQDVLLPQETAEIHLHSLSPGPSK

## Cc1cnc(N[C@H]2CC[C@H](N)CC2)nc1-c1cnc2ccc(-c3ccccc3)cn12 [CDDD11-8]
Aurora A
  remaining activity at 1 µM: 79.3%
CDK2/cyclin O
  remaining activity at 1 µM: 56.8%
CDK4/cyclin D1
  remaining activity at 1 µM: 89.3%
CDK5/p25
  remaining activity at 1 µM: 77.8%
CK1g2
  remaining activity at 1 µM: 59.4%
DAPK2
  remaining activity at 1 µM: 81.2%
EPHA5
  remaining activity at 1 µM: 83.8%
EPHB1
  remaining activity at 1 µM: 88.1%
ERBB4/HER4
  remaining activity at 1 µM: 96.9%
ERK7/MAPK15
  remaining activity at 1 µM: 66.4%
GRK2
  remaining activity at 1 µM: 95.9%
GRK4
  remaining activity at 1 µM: 98.2%
HGK/MAP4K4
  remaining activity at 1 µM: 32.8%
HIPK2
  remaining activity at 1 µM: 104%
KSR2
  remaining activity at 1 µM: 101%
LATS2
  remaining activity at 1 µM: 30.2%
MARK3
  remaining activity at 1 µM: 37%
MUSK
  remaining activity at 1 µM: 72.7%
NEK4
  remaining activity at 1 µM: 78.8%
NIM1
  remaining activity at 1 µM: 89.9%
PDGFRa
  remaining activity at 1 µM: 49.3%
PIM1
  remaining activity at 1 µM: 65%
PIM2
  remaining activity at 1 µM: 94.5%
PKAcb
  remaining activity at 1 µM: 89.6%
PKCd
  remaining activity at 1 µM: 47.6%
PKN1/PRK1
  remaining activity at 1 µM: 63.8%
PLK2
  remaining activity at 1 µM: 97.5%
SIK1
  remaining activity at 1 µM: 39.7%
TTBK2
  remaining activity at 1 µM: 93%
p70S6K/RPS6KB1
  remaining activity at 1 µM: 94.5%
